Source: patent US12522602B2, “Derivatives having 2,3-dihydro-1H-indene or 2,3-dihydrobenzofuran moiety or pharmaceutically acceptable salt thereof and pharmaceutical compositions comprising the same” (YUHAN CORPORATION, priority 2019, dated 2026)
pIC50: −log10 of the molar value.

What follows are compounds tested on GM1 production in Jurkat cells (assay: cells). Settings: not given.
Type: cell-based
For COc1cc2c(cc1-c1ccc(CC(C)C)cc1)CC(C)(C)C2NC(=O)O[C@@H]1CN2CCC1CC2 (stereo partly drawn) [Example 325, (S)-quinuclidin-3-yl (5-(4-isobutylphenyl)-6-methoxy-2,2-dimethyl-2,3-dihydro-1H-inden-1-yl)carbamate], the pIC50 was 8.68.

Same assay, conditions: Homo sapiens, Jurkat, 72 h
CCC1(CC)Cc2cc(-c3ccc(OC(C)C)c(Cl)c3)ccc2C1NC(=O)O[C@@H]1CN2CCC1CC2 (stereo partly drawn) [Example 311, (S)-quinuclidin-3-yl (5-(3-chloro-4-isopropoxyphenyl)-2,2-diethyl-2,3-dihydro-1H-inden-1-yl)carbamate] showed a pIC50 of 7.57. COc1cc2c(cc1-c1cccc(C(C)(C)C)c1)CC(C)(C)C2NC(=O)O[C@@H]1CN2CCC1CC2 (stereo partly drawn) [Example 337, (S)-quinuclidin-3-yl (5-(3-(tert-butyl)phenyl)-6-methoxy-2,2-dimethyl-2,3-dihydro-1H-inden-1-yl)carbamate] gave a pIC50 of 7.19. Work on CC1(C)Cc2cc(-c3cccc(Cl)c3)ccc2C1NC(=O)O[C@@H]1CN2CCC1CC2 (stereo partly drawn) [Example 78, (S)-quinuclidin-3-yl (5-(3-chlorophenyl)-2,2-dimethyl-2,3-dihydro-1H-inden-1-yl)carbamate] yielded a pIC50 of 8.46. With O=C(NC1COc2cc(-c3cccc(OC(F)(F)F)c3)ccc21)O[C@@H]1CN2CCC1CC2 (stereo partly drawn) [Example 405, (S)-quinuclidin-3-yl (6-(3-(trifluoromethoxy)phenyl)-2,3-dihydrobenzofuran-3-yl)carbamate] the pIC50 was 7.35. CC1(C)Cc2ccc(-c3cccc(Cl)c3)cc2C1NC(=O)O[C@@H]1CN2CCC1CC2 (stereo partly drawn) [Example 54, (S)-quinuclidin-3-yl (6-(3-chlorophenyl)-2,2-dimethyl-2,3-dihydro-1H-inden-1-yl)carbamate] showed a pIC50 of 6.79. For CCC1(CC)Cc2cc(-c3ccc(CC(C)C)cc3)ccc2C1NC(=O)O[C@@H]1CN2CCC1CC2 (stereo partly drawn) [Example 287, (S)-quinuclidin-3-yl (2,2-diethyl-5-(4-isobutylphenyl)-2,3-dihydro-1H-inden-1-yl)carbamate], the pIC50 was 8.39. For COc1c(Cl)ccc(-c2ccc3c(c2)CC(C)(C)C3NC(=O)O[C@@H]2CN3CCC2CC3)c1Cl (stereo partly drawn) [Example 162, (S)-quinuclidin-3-yl (5-(2,4-dichloro-3-methoxyphenyl)-2,2-dimethyl-2,3-dihydro-1H-inden-1-yl)carbamate], the pIC50 was 7.41. With COc1ccc(C(F)(F)F)cc1-c1ccc2c(c1)CC(C)(C)C2NC(=O)O[C@@H]1CN2CCC1CC2 (stereo partly drawn) [Example 251, (S)-quinuclidin-3-yl (5-(2-methoxy-5-(trifluoromethyl)phenyl)-2,2-dimethyl-2,3-dihydro-1H-inden-1-yl)carbamate] the pIC50 was 8.14. COc1ccc(-c2cc3c(cc2F)C(NC(=O)O[C@@H]2CN4CCC2CC4)C(C)(C)C3)cc1OC (stereo partly drawn) [Example 385, (S)-quinuclidin-3-yl (5-(3,4-dimethoxyphenyl)-6-fluoro-2,2-dimethyl-2,3-dihydro-1H-inden-1-yl)carbamate] showed a pIC50 of 6.48. In the case of CCOc1ccc(-c2ccc3c(c2)CC(C)(C)C3NC(=O)O[C@@H]2CN3CCC2CC3)cn1 (stereo partly drawn) [Example 262, (S)-quinuclidin-3-yl (5-(6-ethoxypyridin-3-yl)-2,2-dimethyl-2,3-dihydro-1H-inden-1-yl)carbamate], the pIC50 was 7.46. COc1ccc(Cl)cc1-c1cc2c(cc1F)C(NC(=O)O[C@@H]1CN3CCC1CC3)C(C)(C)C2 (stereo partly drawn) [Example 364, (S)-quinuclidin-3-yl (5-(5-chloro-2-methoxyphenyl)-6-fluoro-2,2-dimethyl-2,3-dihydro-1H-inden-1-yl)carbamate] showed a pIC50 of 7.76. For CCCCOc1ccc(-c2ccc3c(c2)CC(C)(C)C3NC(=O)O[C@@H]2CN3CCC2CC3)cc1Cl (stereo partly drawn) [Example 202, (S)-quinuclidin-3-yl (5-(4-butoxy-3-chlorophenyl)-2,2-dimethyl-2,3-dihydro-1H-inden-1-yl)carbamate], the pIC50 was 7.58. In the case of Cc1cc(-c2ccc3c(c2)CC(C)(C)C3NC(=O)O[C@@H]2CN3CCC2CC3)ccc1N1CCOCC1 (stereo partly drawn) [Example 151, (S)-quinuclidin-3-yl (2,2-dimethyl-5-(3-methyl-4-morpholinophenyl)-2,3-dihydro-1H-inden-1-yl)carbamate], the pIC50 was 7.42.
